US11253589B2, “Modulation of the immune response” (priority 2007, dated 2022)
Entries after “also recorded” stand apart in the source; their conditions may differ.

Key:
[1] = test system: C57BL/6 mice; assay: EAE induced by immunization with MOG35-55 in CFA; assay type: in vivo, mouse; parameters: EAE severity: dose or concentration left out as unconfirmed
[2] = test system: C57BL/6 mice; assay: EAE in recipient mice after transfer of CD4+ T cells from treated mice; assay type: in vivo, mouse
Excerpt: To identify the mechanism responsible for the decreased proliferation to MOG35-55 in TCDD-treated animals shown in FIG. 4D, the CD4^+CD25^+ Treg population was depleted with magnetic beads. […] The control of the pathogenic T cell response was mediated by CD4^+CD25^+ Treg, their depletion abrogated the protective effect of the transferred cells (P<0.001, two-way ANOVA, n=4; FIG. 5C).
To confirm that the protective effect of TCDD on EAE was Treg mediated we depleted the natural Treg with antibodies to CD25 prior to TCDD treatment. […] This protective effect was lost when CD4^+CD25^+ T cells were depleted, see FIG. 5h and Table 5.
The control of the pathogenic T cell response was mediated by CD4^+CD25^+ Treg, their depletion from the transferred population abrogated the protective effect of the transferred cells. Thus, the Treg induced by the activation of AHR with ITE inhibit the progression of EAE.

[3] = test system: CD4+Foxp3:GFP+ Treg; assay: Treg suppressive activity assay; assay type: cell-based, mouse
Procedure: Cells were cultured in serum-free X-VIVO 20™ media (BioWhittaker, Walkersville, Md., USA) for 72 hours. During the last 16 hours, cells were pulsed with 1 μCi of [^3H]thymidine (PerkinElmer, Waltham, Mass., USA) followed by harvesting on glass fiber filters and analysis of incorporated [^3H]thymidine in a beta-counter (1450 Microbeta, Trilux, PerkinElmer). Alternatively, culture supernatants were collected […] activation and the cytokine concentration was determined by ELISA using antibodies for IFN-γ, IL-17, IL-4, IL-10 from BD Biosciences and antibodies to TGF-β from R&D Systems. For suppression assays, MACS purified CD4^+CD25^− T cells from naïve C57BL/6 mice (1-5×10^4 cells/well) were stimulated with antibodies to CD3 and C57BL/6 irradiated spleen cells (0.3-1.5×10^4 cells/well) for 3 days in the presence of different ratios of CD4^+ GFP^+ retrovirus-transduced T cells.
To investigate the active suppression of MOG35-55-specific Teff by Treg, Foxp3^gpf knock in mice were immunized with MOG35-55/CFA, treated daily with intreaperitoneal ITE ([…]) and the recall response to MOG35-55 and a mitogenic antibody to CD3 antibody was studied on FACS-sorted CD4^+ T cells and CD4^+ FoxP3:GFP− Teff. […] This suppressed response to MOG35-55 was lost upon removal of the CD4^+FoxP3:GFP^+ Treg (FIG. 26). To further analyze the MOG35-55-specific suppressive activity of the CD4^+FoxP3:GFP^+ Treg, they were cocultured at different ratios and assayed for the suppression of MOG35-55 or anti-CD3-triggered proliferation of CD4^+FoxP3:GFP− Teff form 2D2 mice, which harbor a TCR specific for MOG35-55.

[4] = test system: CD4+IL-17+ and CD4+IFNg+ T cells; assay: Frequency of CD4+IL-17+ and CD4+IFNg+ T cells by FACS; assay type: in vivo, mouse
Procedure: In addition, cells were stimulated in culture medium containing 100 μg/ml MOG35-55 for 2 days or with PMA (50 ng/ml) (Sigma-Aldrich) and ionomycin ([…]) (Calbiochem, San Diego, Calif., USA) for 4 hours, Golgistop (BD Biosciences) was added to the culture during the last 4 hours. After staining of surface markers, cells were fixed and permeabilized using Cytofix/Cytoperm and Perm/Wash buffer from BD Biosciences according to the manufacturer's instructions. All antibodies to cytokines (IFN-gamma, IL-17, IL-10) including the corresponding isotype controls were obtained from BD Biosciences. Cells were incubated (1:100) at 25° C. for 20 min and washed twice in Perm/Wash before analysis. Data were acquired on a FACSCalibur (BD Biosciences) and analyzed with FlowJo software (Tree Star, Ashland, Oreg., USA).
To confirm the suppressive effects of AHR activation on the generation of T cells secreting IFNg and IL17, IFNg^+ and IL17^+ CD4^+ T cells were quantified by FACS in the draining lymph nodes ten days after footpad immunization and intraperitoneal administration of ITE ([…]).

[5] = test system: CD11c+ and CD11b+ cells; assay: MHC class II expression on CD11c+ and CD11b+ cells by FACS; assay type: in vivo; conditions: ITE 200 mg/mouse ip daily or TCDD 1 mg/mouse ip on day 0; spleens 10 days after MOG35-55/CFA
Excerpt: AHR is known to be expressed by antigen presenting cells (APC) such as dendritic cells (CD11c^+) and macrophages (CD11b^+) (Vorderstrasse and Kerkvliet, Toxicol Appl Pharmacol. 171, 117 (2001); Laupeze et al., J Immunol. 168, 2652 (2002); Hayashi et al., Carcinogenesis. 16, 1403 (1995); Komura et al., Mol Cell Biochem. 226, 107 (2001)). To analyze the effects that AHR activation by ITE might have on different APC populations, which can potentially influence the generation of Teff and Treg cells, we studied the effect of ITE and TCDD treatment on MHC class II expression by as dendritic cells (CD11c^+) and macrophages (CD11b). C57BL/6 mice were treated with ITE (200 mg/mouse administered ip, daily) or TCDD (1 mg/mouse administered ip on day 0) and immunized them with […] of MOG35-55 in CFA. Spleens were prepared 10 days later and […] expression was investigated on CD11b^+ and CD11c^+ cells by FACS.

[6] = C57BL/6 (WT) mice, TCDD 1 μg/mouse, Table 4
[7] = recipients of 5 × 10^6 CD4+ T cells from TCDD treated mice
[8] = recipients of 5 × 10^6 CD4+CD25- T cells from TCDD treated mice
[9] = draining lymph nodes of TCDD-treated mice
[10] = ITE 200 μg/mouse daily, either orally or intraperitoneally
[11] = ITE 200 mg/mice intraperitoneal, draining lymph nodes ten days after footpad immunization

Structure (SMILES): Clc1cc2c(cc1Cl)Oc1cc(Cl)c(Cl)cc1O2 [TCDD, 2,3,7,8 tetrachlorodibenzo-p-dioxin]
- EAE development ([1]; AHR-ligand loaded nanoparticles, 45 femtomoles weekly starting at day 0): complete suppression of EAE
- Mean day of onset (Mean ± SD) [1, 6]: 21 days
- Mean maximum score (mean ± SD) [1, 6]: 0.2 ± 0.6
- histopathological signs of EAE (cellular infiltrate, demyelination, axonal loss in spinal cord) ([1]; IP administered TCDD, day 19 after EAE induction): reduced the histopathological signs of EAE; also recorded: inhibits CNS inflammation, demyelination and axonal loss
- Incidence (positive/total) ([1]; TCDD 0.01 μg per mouse ip): 7/7
- Mean day of onset (Mean ± standard deviation (SD)) ([1]; TCDD 0.01 μg per mouse ip): 14.1 ± 2.9 days
- Mean maximum score (mean ± SD) ([1]; TCDD 0.01 μg per mouse ip, EAE score 0-5): 2.7 ± 0.6
- Mean day of onset (Mean ± standard deviation (SD)) ([1]; TCDD 0.1 μg per mouse ip): 17.0 ± 1.2 days
- Mean maximum score (mean ± SD) ([1]; TCDD 0.1 μg per mouse ip, EAE score 0-5): 3.1 ± 0.5
- Mean day of onset (Mean ± standard deviation (SD)) ([1]; TCDD 1 μg per mouse ip, then MOG35-55/CFA): 21.8 ± 1.5 days
- Mean maximum score (mean ± SD) ([1]; TCDD 1 μg per mouse ip, then MOG35-55/CFA, EAE score 0-5): 0.2 ± 0.6
- clinical signs of EAE ([1]; TCDD 1 μg/mouse ip): markedly inhibited the clinical signs of EAE
- EAE development ([1]; TCDD 1 μg/mouse orally, one day before EAE induction): prevented EAE development
- onset of EAE ([1]; natural Treg depleted with antibodies to CD25 prior to TCDD treatment): significant delay in the onset of EAE
- Mean day of onset (Mean ± SD) [2, 7]: 13.3 ± 0.6 days
- Mean maximum score (mean ± SD) [2, 7]: 0.7 ± 0.8
- Mean day of onset (Mean ± SD) [2, 8]: 11.0 ± 0.0 days
- Mean maximum score (mean ± SD) [2, 8]: 2.6 ± 1.8
- development of EAE ([2]; transfer of 5×10^6 CD4+ T cells from TCDD-treated mice): significantly inhibited the development of EAE
- MOG35-55-specific suppressive activity of CD4+Foxp3:GFP+ T cells ([3]; Treg expanded in vivo by TCDD administration and MOG35-55 immunization): increased MOG35-55-specific suppressive activity
- proliferation and suppressive activity of CD4+Foxp3:GFP+ Treg purified from naïve mice ([3]; stimulation with antibodies to CD3 and CD28 and TCDD): did not proliferate and did not show increased suppressive activity
- frequency of CD4+IFNg+ T cells [4, 9]: decrease in the frequency
- frequency of CD4+IL-17 T cells [4, 9]: decrease in the frequency
- IL-17+CD4+ T cells in the draining lymph nodes ([4]; natural Treg depleted with antibodies to CD25 prior to TCDD treatment, day 18): significant reduction; also recorded: significant decrease in the frequency
- CD11b+ MHC class II expression [5]: significant increase
- CD11c+ MHC class II expression [5]: significant decrease

Structure (SMILES): COC(=O)c1csc(C(=O)c2c[nH]c3ccccc23)n1 [ITE, 2-(1′H-indole-3′-carbonyl)-thiazole-4-carboxylic acid methyl ester]
- protective effects on EAE ([1]; ITE 200 μg/mouse at weekly intervals instead of daily): complete loss of tis protective effects on EAE; also recorded: fails to suppress EAE development
- EAE clinical score [1, 10]: significant reduction of EAE clinical score
- EAE development (delay) [1, 10]: significant delay on EAE development
- EAE severity ([1]; administered on a daily basis): significant reduction on EAE severity
- protection from EAE by transfer of CD4+ T cells ([2]; CD4+ T cells from mice treated with oral or intraperitoneal ITE): Protection from EAE could be transferred
- MOG35-55-specific suppressive activity of CD4+ FoxP3:GFP+ Treg ([3]; Treg from ITE-treated mice, 2D2 Teff as responders): increased MOG35-55-specific suppressive activity
- frequency of CD4+IFNg+ T cells [4, 11]: decrease in the frequency
- frequency of CD4+IL17+ T cells [4, 11]: decrease in the frequency
- CD11b+ MHC class II expression [5]: significant increase
- CD11c+ MHC class II expression [5]: significant decrease
